PubChem BioAssay (NCI)
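Values below derive from 48-hour exposures of cells grown in 96-well plates, with endpoints linearly interpolated between the two concentrations bracketing the appropriate inhibition level. Here, GI50 denotes the concentration required for 50% inhibition of growth. TGI: concentration producing complete growth inhibition.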

Key:
Assay in all cases: NCI anticancer screen, dose series, 48 h; in the data active = GI50 below about 0.43 µM; inactive = the rest
786-0 renal = tested on: 786-0 renal
A498 renal = tested on: A498 renal
A549 NSCLC = tested on: A549 NSCLC
ACHN renal = tested on: ACHN renal
CAKI-1 renal = tested on: CAKI-1 renal
CCRF-CEM leukemia = tested on: CCRF-CEM leukemia
COLO 205 colon = tested on: COLO 205 colon
DU-145 prostate = tested on: DU-145 prostate
EKVX NSCLC = tested on: EKVX NSCLC
HCC-2998 colon = tested on: HCC-2998 colon
HCT-116 colon = tested on: HCT-116 colon
HCT-15 colon = tested on: HCT-15 colon
HL-60(TB) leukemia = tested on: HL-60(TB) leukemia
HOP-62 NSCLC = tested on: HOP-62 NSCLC
HOP-92 NSCLC = tested on: HOP-92 NSCLC
HS 578T breast = tested on: HS 578T breast
HT29 colon = tested on: HT29 colon
IGROV1 ovarian = tested on: IGROV1 ovarian
K-562 leukemia = tested on: K-562 leukemia
KM12 colon = tested on: KM12 colon
LOX IMVI melanoma = tested on: LOX IMVI melanoma
M14 melanoma = tested on: M14 melanoma
MALME-3M melanoma = tested on: MALME-3M melanoma
MCF7 breast = tested on: MCF7 breast
MDA-MB-231 breast = tested on: MDA-MB-231 breast
MDA-MB-435 = tested on: MDA-MB-435
MOLT-4 leukemia = tested on: MOLT-4 leukemia
NCI-H226 lung = tested on: NCI-H226 lung
NCI-H23 lung = tested on: NCI-H23 lung
NCI-H460 lung = tested on: NCI-H460 lung
NCI-H522 lung = tested on: NCI-H522 lung
NCI/ADR-RES ovarian = tested on: NCI/ADR-RES ovarian
OVCAR-3 ovarian = tested on: OVCAR-3 ovarian
OVCAR-4 ovarian = tested on: OVCAR-4 ovarian
OVCAR-5 ovarian = tested on: OVCAR-5 ovarian
PC-3 prostate = tested on: PC-3 prostate
RPMI-8226 leukemia = tested on: RPMI-8226 leukemia
SF-268 CNS = tested on: SF-268 CNS
SF-295 CNS = tested on: SF-295 CNS
SF-539 CNS = tested on: SF-539 CNS
SK-MEL-2 melanoma = tested on: SK-MEL-2 melanoma
SK-MEL-28 melanoma = tested on: SK-MEL-28 melanoma
SK-MEL-5 melanoma = tested on: SK-MEL-5 melanoma
SK-OV-3 ovarian = tested on: SK-OV-3 ovarian
SN12C renal = tested on: SN12C renal
SNB-19 CNS = tested on: SNB-19 CNS
SNB-75 CNS = tested on: SNB-75 CNS
SR leukemia = tested on: SR leukemia
SW-620 colon = tested on: SW-620 colon
T-47D breast = tested on: T-47D breast
TK-10 renal = tested on: TK-10 renal
U251 CNS = tested on: U251 CNS
UACC-62 melanoma = tested on: UACC-62 melanoma
UO-31 renal = tested on: UO-31 renal
OVCAR-8 ovarian = tested on: OVCAR-8 ovarian
RXF 393 renal = tested on: RXF 393 renal
UACC-257 melanoma = tested on: UACC-257 melanoma

CSc1ccc(C2=NN(c3ccccc3)C(c3ccc(-c4cc(Cl)c(Cl)cc4Cl)o3)C2)cc1 (stereo not given)
inactive: GI50 (786-0 renal) > 100 µM | GI50 (A498 renal) > 100 µM | GI50 (A549 NSCLC) > 100 µM | GI50 (ACHN renal) > 100 µM | GI50 (CAKI-1 renal) > 100 µM | GI50 (CCRF-CEM leukemia) > 100 µM | GI50 (COLO 205 colon) > 100 µM | GI50 (DU-145 prostate) > 100 µM | GI50 (EKVX NSCLC) > 100 µM | GI50 (HCC-2998 colon) > 100 µM | GI50 (HCT-116 colon) > 100 µM | GI50 (HCT-15 colon) > 100 µM | GI50 (HL-60(TB) leukemia) > 100 µM | GI50 (HOP-62 NSCLC) 12.3 µM | GI50 (HOP-92 NSCLC) 21 µM | GI50 (HS 578T breast) 46.3 µM | GI50 (HT29 colon) > 100 µM | GI50 (IGROV1 ovarian) > 100 µM | GI50 (K-562 leukemia) > 100 µM | GI50 (KM12 colon) > 100 µM | GI50 (LOX IMVI melanoma) > 100 µM | GI50 (M14 melanoma) > 100 µM | GI50 (MALME-3M melanoma) > 100 µM | GI50 (MCF7 breast) > 100 µM | GI50 (MDA-MB-231 breast) > 100 µM | GI50 (MDA-MB-435) > 100 µM | GI50 (MOLT-4 leukemia) > 100 µM | GI50 (NCI-H226 lung) > 100 µM | GI50 (NCI-H23 lung) > 100 µM | GI50 (NCI-H460 lung) 89.3 µM | GI50 (NCI-H522 lung) > 100 µM | GI50 (NCI/ADR-RES ovarian) > 100 µM | GI50 (OVCAR-3 ovarian) > 100 µM | GI50 (OVCAR-4 ovarian) > 100 µM | GI50 (OVCAR-5 ovarian) > 100 µM | GI50 (PC-3 prostate) 63.1 µM | GI50 (RPMI-8226 leukemia) > 100 µM | GI50 (SF-268 CNS) 87.1 µM | GI50 (SF-295 CNS) 54.7 µM | GI50 (SF-539 CNS) 63.2 µM | GI50 (SK-MEL-2 melanoma) > 100 µM | GI50 (SK-MEL-28 melanoma) > 100 µM | GI50 (SK-MEL-5 melanoma) > 100 µM | GI50 (SK-OV-3 ovarian) 35.8 µM | GI50 (SN12C renal) > 100 µM | GI50 (SNB-19 CNS) 64.3 µM | GI50 (SNB-75 CNS) 27.5 µM | GI50 (SR leukemia) > 100 µM | GI50 (SW-620 colon) > 100 µM | GI50 (T-47D breast) > 100 µM | GI50 (TK-10 renal) > 100 µM | GI50 (U251 CNS) 89.2 µM | GI50 (UACC-62 melanoma) 78.8 µM | GI50 (UO-31 renal) > 100 µM
85.7 µM: TGI (SNB-75 CNS)
> 100 µM: TGI (786-0 renal) | TGI (A498 renal) | TGI (A549 NSCLC) | TGI (ACHN renal) | TGI (CAKI-1 renal) | TGI (CCRF-CEM leukemia) | TGI (COLO 205 colon) | TGI (DU-145 prostate) | TGI (EKVX NSCLC) | TGI (HCC-2998 colon) | TGI (HCT-116 colon) | TGI (HCT-15 colon) | TGI (HL-60(TB) leukemia) | TGI (HOP-62 NSCLC) | TGI (HS 578T breast) | TGI (HT29 colon) | TGI (IGROV1 ovarian) | TGI (K-562 leukemia) | TGI (KM12 colon) | TGI (LOX IMVI melanoma) | TGI (M14 melanoma) | TGI (MALME-3M melanoma) | TGI (MCF7 breast) | TGI (MDA-MB-231 breast) | TGI (MDA-MB-435) | TGI (MOLT-4 leukemia) | TGI (NCI-H226 lung) | TGI (NCI-H23 lung) | TGI (NCI-H460 lung) | TGI (NCI-H522 lung) | TGI (NCI/ADR-RES ovarian) | TGI (OVCAR-3 ovarian) | TGI (OVCAR-4 ovarian) | TGI (OVCAR-5 ovarian) | TGI (PC-3 prostate) | TGI (RPMI-8226 leukemia) | TGI (SF-268 CNS) | TGI (SF-295 CNS) | TGI (SF-539 CNS) | TGI (SK-MEL-2 melanoma) | TGI (SK-MEL-28 melanoma) | TGI (SK-MEL-5 melanoma) | TGI (SK-OV-3 ovarian) | TGI (SN12C renal) | TGI (SNB-19 CNS) | TGI (SR leukemia) | TGI (SW-620 colon) | TGI (T-47D breast) | TGI (TK-10 renal) | TGI (U251 CNS) | TGI (UACC-62 melanoma) | TGI (UO-31 renal)
52.1 µM: TGI (HOP-92 NSCLC)

OCN(CO)c1ccc2c(c1)Cc1cc(F)ccc1-2
35.4 µM: TGI (KM12 colon)
47.3 µM: TGI (A549 NSCLC)
39.3 µM: TGI (SR leukemia)
27.4 µM: TGI (OVCAR-3 ovarian)
36.4 µM: TGI (ACHN renal)
44 µM: TGI (SNB-19 CNS)
42.7 µM: TGI (MCF7 breast)
51.4 µM: TGI (NCI/ADR-RES ovarian)
38.1 µM: TGI (UACC-62 melanoma)
95.9 µM: TGI (SK-OV-3 ovarian)
45.7 µM: TGI (OVCAR-4 ovarian)
30.1 µM: TGI (SF-295 CNS)
27.9 µM: TGI (HT29 colon)
34.8 µM: TGI (U251 CNS)
31.7 µM: TGI (LOX IMVI melanoma)
25.4 µM: TGI (SW-620 colon)
50.2 µM: TGI (DU-145 prostate)
88.7 µM: TGI (SK-MEL-28 melanoma)
52.4 µM: TGI (MALME-3M melanoma)
38.6 µM: TGI (SN12C renal)
36.1 µM: TGI (T-47D breast)
37.2 µM: TGI (UACC-257 melanoma)
46.8 µM: TGI (OVCAR-5 ovarian)
40.3 µM: TGI (NCI-H226 lung)
33.9 µM: TGI (HS 578T breast)
41.9 µM: TGI (HCT-15 colon)
39.9 µM: TGI (K-562 leukemia)
37.4 µM: TGI (NCI-H522 lung)
40.5 µM: TGI (OVCAR-8 ovarian)
36.2 µM: TGI (PC-3 prostate)
75.8 µM: TGI (MOLT-4 leukemia)
41.5 µM: TGI (EKVX NSCLC)
45.9 µM: TGI (SK-MEL-2 melanoma)
59.9 µM: TGI (UO-31 renal)
> 100 µM: TGI (786-0 renal) | TGI (HCT-116 colon) | TGI (HOP-62 NSCLC) | TGI (RXF 393 renal)
24.9 µM: TGI (COLO 205 colon)
60.9 µM: TGI (M14 melanoma)
78.4 µM: TGI (HL-60(TB) leukemia)
39.2 µM: TGI (TK-10 renal)
93.7 µM: TGI (NCI-H23 lung)
32.9 µM: TGI (MDA-MB-231 breast)
44.6 µM: TGI (CAKI-1 renal)
36.8 µM: TGI (MDA-MB-435) | TGI (SF-539 CNS)
56.3 µM: TGI (SNB-75 CNS)
65.1 µM: TGI (NCI-H460 lung)
23.3 µM: TGI (SK-MEL-5 melanoma)
43 µM: TGI (IGROV1 ovarian)
81.3 µM: TGI (SF-268 CNS)
